Measurements taken from patent publication US9981042B2, “Carbon nanotube-based anti-cancer agent capable of suppressing drug resistance” (INDUSTRY-ACADEMIC COOPERATION FOUNDATION GYEONGSANG …, priority 2012, dated 2018).

How the values were obtained:
MDA-MB-231 tumor = assay: Tumor size and weight in MDA-MB-231 tumor model mice after tail vein injection; type: in vivo, BALB/c nude mice
Method: To prepare the animal tumor model, MDA-MB-231 cells were inoculated subcutaneously in the flank of female BALB/c nu/nu (athymic nude) mice (5×10^6 cells per mouse) When the tumor reached a mean volume of 100 mm^3 in the mice were used for the following Experimental Examples.
First, the tumor model mice prepared by transplanting MDA-MB-231 tumor cells to BALB/c nude mice were randomly divided into seven groups (n=10 per group) and injected with 200 μL of 0.5 mg/kg DOX, mwCNT, DOX-mwCNT in PBS, or pure PBS (negative control) in the tail vein. Subjects were weighed at 2, 9, and 16 days. Body weight and tumor sizes were measured twice a week for 21 days, and tumor volumes were calculated by the formula: V(volume)=X(length)×D(width)^2/2.
Twenty one day after the tail vein injection, the changes in tumor size of sacrificed animals were determined.
Furthermore, after the administration of the anticancer agent, tumor tissues taken from the sacrificed animals were weighed. In this case, in order to compare the significance of each group, Prism (GraphPad Software, Inc.) was used for statistical analysis with one-way ANOVA (analysis of variance) (** P<0.01, *** P<0.001).

MDA-MB-231 tumor tissue = assay: Histopathological observation (Haematoxylin-Eosin) of tumor tissues; type: in vivo, BALB/c nude mice; conditions: H&E; doxorubicin 0.5 and 5 mg/kg, DOX-mwCNT-25 0.5 mg/kg; versus control
Method: Then, the present inventors anesthetized the mice with ethyl ether, sacrificed them and collected tumor tissues therefrom. After measuring the weight of the collected tumor tissues, the tumor tissues were fixed for 24 hours in 10% formalin, washed with water and dehydrated and dipped in 70, 80, 90, 95 and 100% of ethanol, serially. The tissues were transparentized with xylene and embedded in paraffin. And then the embedded tissues were sliced at a thickness of 5 um, placed on glass slides.

MDA-MB-231 cells = assay: Efflux from cells (fluorescence microscopy); type: cell-based; conditions: 100 ng/ml for 2 h, then drug-free medium
Method: In addition, for efflux analysis, MDA-MB-231 cells (1×10^4 cells/well) cultivated in 24 well plate were treated with 100 ng/ml of DOX-mwCNT according to an embodiment of the present invention and doxorubicin, respectively. Two hours after the treatment, culture media was removed and the cells were washed three times with PBS and incubated with regular culture medium containing no anticancer agents for 24 h. Then the degree of efflux of doxorubicin from the cells was observed using a fluorescent microscope (FIG. 27). […] In the experiment, zero time (0 h) means a time when 2 hours has elapsed after removing doxorubicin and washing cells with PBS.

[1] = tested on: late endosomes in MDA-MB-231 cells; assay: High resolution imaging of doxorubicin and late endosome marker; type: cell-based; conditions: 24 h
Method: Furthermore, the present inventors performed a high resolution image analysis for 24 h in order to investigate the degradation of uptaken doxorubicin signal by co-staining doxorubicin and late endosome specific marker. […] Therefore, it was understood that late endosomes act as transporters of doxorubicin excreted from nucleus.

Mrp-1 = Mrp-1 mRNA expression by RT-PCR; type: cell-based; conditions: 100 ng/ml for 2 h; after 6 hours and later
Method: (§1) MDA-MB-231 breast cancer cells (4×10^5 cells/well) known to overexpress MRP1 were plated in a 6 well plate and 100 ng/ml of doxorubicin and DOX-mwCNT were treated to the cells for 2 h, respectively. Carbon nanotube as a control was treated with a concentration of 348 ng/ml for 2 h.
Two hours after treatment, culture mediums were replaced with DMEM medium supplemented with 10% FBS and not containing mwCNT, DOX, and DOX-mwCNT, and the cells were further incubated. Then RNA was isolated from cells after 2, 6, 12, 24, and 36 hours of incubation, respectively and then Mrp-1 mRNA level was analyzed. In this case, TRIZOL reagent (Invitrogen, USA) and chloroform were used for RNA isolation, then the isolated RNA was reacted with same volume of isopropanol for 2 h, quantified and subjected to RT-PCR (reverse transcriptase PCR).

MRP-1 protein = MRP-1 protein western blot; type: cell-based; conditions: 100 ng/ml for 2 h; 24 hours after the treatment
Method: as §1
To confirm the above result in protein level, the present inventors performed western bot analysis of the MRP-1 protein, there was a significant difference in protein expression of MRP-1 between doxorubicin- and DOX-mwCNT-25-treating groups (FIG. 30). […] Despite of previous studies reporting that Mdr-1 and Mrp-1 genes mediate drug resistance of MDA-MB-231, Mdr-1 was hardly detected in this experiment due to short drug exposure time (2 hours).

[2] = Particle size by transmission electron microscope; conditions: in PBS
A549 cells = assay: MTT assay on lung cancer cells; type: cell-based; conditions: A549, 48 h, 0.086-1.38 μmol/L
Method: A549 cells (1×10^4 cells/well, CAT: CRL-1658, ATCC) were seeded in a 96-well plate and incubated with DMEM medium supplementing 10% FBS (fetal bovine serum). At this time, the culture was maintained under the condition of 5% of CO2 at 37° C. The cells were cultured for 24 h and mwCNT-COOH, EPI, EPI-EGF, EPI-mwCNT and EPI-EGF-mwCNT were treated to each well with ratios of 0.086, 0.172, 0.345, 0.69, 1.38 μmol/L, respectively and then further cultured for 48 h. And then, drug solutions were removed from the plate, 100 μl of MTT reagent (1 mg/ml, 3-(4,5-dimethylthiazol-2-yl)-2,5-diphenyltetrazolium bromide) was slowly added to each well, and incubated for 1 h at 37° C. Thereafter, 100 μl of DMSO solution per well was added, followed by measuring absorbance at 560 nm using a microplate reader (Model 680, Bio-Rad).
Then, the present inventors treated drugs containing doxorubicin (DOX-EGF, DOX-mwCNT-25, DOX-EGF-mwCNT) to the same lung cancer cell A549. All the condition except drugs were same.

COc1cccc2c1C(=O)c1c(O)c3c(c(O)c1C2=O)C[C@@](O)(C(=O)CO)C[C@@H]3O[C@H]1C[C@H](N)[C@H](O)[C@H](C)O1 [DOX, doxorubicin]
volume and mass of tumors (MDA-MB-231 tumor; 0.5 mg/kg, three times I.V. injection, 21 days): no notable tumor inhibition | size of tumor tissue compared to control group (MDA-MB-231 tumor; large dose 5 mg/kg): decreased significantly | necrosis / damage of tumor tissue (MDA-MB-231 tumor tissue): increased necrosis | time to complete excretion from cells (MDA-MB-231 cells): 6˜12 hours | late endosome signal [1]: few late endosomes were observed | expression of Mrp-1 gene (Mrp-1): decreased | protein expression of MRP-1 (MRP-1 protein): weak band | particle size (length variation) [2]: 0-40 nm

COc1cccc2c1C(=O)c1c(O)c3c(c(O)c1C2=O)C[C@@](O)(C(=O)CO)C[C@@H]3O[C@H]1C[C@H](N)[C@@H](O)[C@H](C)O1 [EPI, epirubicin]
viability compared to group treated with only mwCNT-COOH (A549 cells): lower viability

EPI-EGF (NSDSECPLSHDGYCLHDGVCMYIEALDKYACNCVVGYIGERCQYRDLKWWELR; Epidermal growth factor epirubicin conjugate; UniProt P01133 971-1023, looked up)
viability compared to group treated with only mwCNT-COOH (A549 cells): lower viability
